# Assay results from ChEMBL document CHEMBL1201862, “PubChem BioAssay data set” (2004).
# Active and inactive are the calls of the source.
# What was measured:
# [1] = Counterscreen for activators of the function of SWI/SNF related, matrix associated, actin dependent regulator of chromatin, subfamily a, member 2 (SMARCA2, BRM): Luminescence-based cell-based high throughput dose response assay to identify non-selective compounds using the VP16 reporter assay.; format: functional
# [2] = molecular target: SWI/SNF-related matrix-associated actin-dependent regulator of chromatin subfamily A member 2 (Homo sapiens, UniProt P51531); assay: Luminescence-based cell-based high throughput dose response assay to identify activators of the function of SWI/SNF related, matrix associated, actin dependent regulator of chromatin, subfamily a, member 2 (SMARCA2, BRM).; format: functional
# SWI/SNF-related matrix-associated actin-dependent regulator of chromatin subfamily A member 2, sequence (P51531 whole entry): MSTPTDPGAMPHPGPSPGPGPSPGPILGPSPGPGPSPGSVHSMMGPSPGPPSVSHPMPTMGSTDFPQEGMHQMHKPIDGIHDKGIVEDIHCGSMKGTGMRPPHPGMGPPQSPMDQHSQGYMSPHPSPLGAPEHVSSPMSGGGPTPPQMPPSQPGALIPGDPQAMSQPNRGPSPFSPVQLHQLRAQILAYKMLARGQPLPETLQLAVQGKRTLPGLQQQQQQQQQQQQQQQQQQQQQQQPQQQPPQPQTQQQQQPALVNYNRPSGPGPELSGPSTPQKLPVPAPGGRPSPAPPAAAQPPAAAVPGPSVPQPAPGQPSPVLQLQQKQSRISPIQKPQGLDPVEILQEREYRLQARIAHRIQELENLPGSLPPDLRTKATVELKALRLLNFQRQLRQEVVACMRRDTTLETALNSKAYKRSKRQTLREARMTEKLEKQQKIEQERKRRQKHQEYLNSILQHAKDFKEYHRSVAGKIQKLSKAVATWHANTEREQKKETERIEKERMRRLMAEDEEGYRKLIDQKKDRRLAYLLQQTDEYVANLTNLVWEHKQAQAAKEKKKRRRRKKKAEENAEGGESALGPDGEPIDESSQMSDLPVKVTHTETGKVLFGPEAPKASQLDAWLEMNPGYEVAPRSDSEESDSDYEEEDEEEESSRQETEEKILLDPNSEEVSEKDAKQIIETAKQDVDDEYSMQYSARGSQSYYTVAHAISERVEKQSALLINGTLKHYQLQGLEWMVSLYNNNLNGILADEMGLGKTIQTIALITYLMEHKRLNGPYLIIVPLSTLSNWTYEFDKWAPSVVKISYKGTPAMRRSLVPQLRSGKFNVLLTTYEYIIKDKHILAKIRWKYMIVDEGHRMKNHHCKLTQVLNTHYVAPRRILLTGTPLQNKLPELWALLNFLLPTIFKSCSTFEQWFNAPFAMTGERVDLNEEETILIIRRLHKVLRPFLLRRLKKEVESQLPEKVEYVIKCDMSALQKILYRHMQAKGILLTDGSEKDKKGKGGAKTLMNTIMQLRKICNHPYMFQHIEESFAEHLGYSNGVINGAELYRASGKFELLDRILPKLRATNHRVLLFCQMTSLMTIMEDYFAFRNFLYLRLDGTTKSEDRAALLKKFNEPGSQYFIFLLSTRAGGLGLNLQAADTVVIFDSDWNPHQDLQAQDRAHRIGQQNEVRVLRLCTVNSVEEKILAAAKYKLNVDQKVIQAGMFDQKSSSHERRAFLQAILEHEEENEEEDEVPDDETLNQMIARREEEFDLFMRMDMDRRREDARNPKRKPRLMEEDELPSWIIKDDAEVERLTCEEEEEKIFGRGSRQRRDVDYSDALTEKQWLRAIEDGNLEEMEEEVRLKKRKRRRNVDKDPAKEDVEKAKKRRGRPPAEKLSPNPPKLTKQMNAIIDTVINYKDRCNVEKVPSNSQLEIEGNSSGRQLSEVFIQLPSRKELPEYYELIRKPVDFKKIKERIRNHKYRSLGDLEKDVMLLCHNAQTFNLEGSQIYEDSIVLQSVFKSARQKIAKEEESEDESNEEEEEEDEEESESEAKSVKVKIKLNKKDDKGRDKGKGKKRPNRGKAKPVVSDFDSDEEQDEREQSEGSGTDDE
# [3] = molecular target: Glucose-6-phosphate 1-dehydrogenase (Homo sapiens, UniProt P11413); assay: human G6PD enzyme inhibitors, dose response, selectivity assay for P. falciparum G6PD inhibitor project, biochemical, fluorescence (AID 504792); format: functional
# Glucose-6-phosphate 1-dehydrogenase, sequence (P11413 whole entry): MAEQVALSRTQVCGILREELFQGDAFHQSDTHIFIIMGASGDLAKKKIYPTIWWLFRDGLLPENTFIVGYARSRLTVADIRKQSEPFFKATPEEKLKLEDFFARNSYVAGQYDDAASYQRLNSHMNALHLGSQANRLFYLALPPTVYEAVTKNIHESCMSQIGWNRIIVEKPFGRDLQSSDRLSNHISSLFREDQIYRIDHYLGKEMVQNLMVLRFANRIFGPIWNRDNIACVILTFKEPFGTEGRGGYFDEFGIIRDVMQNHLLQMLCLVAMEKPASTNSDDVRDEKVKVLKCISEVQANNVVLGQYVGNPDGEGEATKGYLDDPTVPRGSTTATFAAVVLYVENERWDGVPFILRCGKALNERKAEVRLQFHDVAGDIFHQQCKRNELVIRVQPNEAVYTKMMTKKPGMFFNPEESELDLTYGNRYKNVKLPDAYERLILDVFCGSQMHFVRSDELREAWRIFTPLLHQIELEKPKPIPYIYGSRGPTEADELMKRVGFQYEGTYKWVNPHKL
# [4] = molecular target: T1, Heat shock factor protein 1 (Mus musculus, UniProt P38532); assay: inhibition of MG132-induced HSE-luciferase signal, confirmation, cell-based, NIH3T3, luminescence, dose retest (AID 2382); format: functional;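 note: NIH3T3 fibroblasts with HSF1-driven luciferase reporter stressed by proteasome inhibitor MG132; luminescence from HSF1-driven luciferase expression after 8 hours of MG132 stress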
# T1 sequence (P38532 whole entry): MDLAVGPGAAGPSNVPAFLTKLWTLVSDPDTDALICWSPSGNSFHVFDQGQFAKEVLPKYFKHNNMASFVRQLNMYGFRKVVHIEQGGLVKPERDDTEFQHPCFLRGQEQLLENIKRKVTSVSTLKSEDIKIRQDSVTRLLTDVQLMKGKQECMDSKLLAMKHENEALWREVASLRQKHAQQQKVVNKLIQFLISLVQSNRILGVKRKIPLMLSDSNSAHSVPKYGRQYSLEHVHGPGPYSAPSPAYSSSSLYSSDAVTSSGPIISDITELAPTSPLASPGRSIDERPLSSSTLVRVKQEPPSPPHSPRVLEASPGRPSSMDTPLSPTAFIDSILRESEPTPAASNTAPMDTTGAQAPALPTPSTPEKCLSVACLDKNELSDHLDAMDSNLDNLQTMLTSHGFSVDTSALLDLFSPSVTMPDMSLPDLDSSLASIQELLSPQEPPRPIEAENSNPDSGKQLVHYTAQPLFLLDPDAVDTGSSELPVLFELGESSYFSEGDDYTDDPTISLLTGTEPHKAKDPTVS
# Vero [5] = assay: cells; format: functional; conditions: Chlorocebus sabaeus
# Vero [6] = assay: cells; format: functional, cell-based; conditions: Chlorocebus sabaeus
# Cytochrome P450 2C9 = Cytochrome P450 2C9 (Homo sapiens, UniProt P11712)
# Cytochrome P450 2C9, sequence (P11712 whole entry): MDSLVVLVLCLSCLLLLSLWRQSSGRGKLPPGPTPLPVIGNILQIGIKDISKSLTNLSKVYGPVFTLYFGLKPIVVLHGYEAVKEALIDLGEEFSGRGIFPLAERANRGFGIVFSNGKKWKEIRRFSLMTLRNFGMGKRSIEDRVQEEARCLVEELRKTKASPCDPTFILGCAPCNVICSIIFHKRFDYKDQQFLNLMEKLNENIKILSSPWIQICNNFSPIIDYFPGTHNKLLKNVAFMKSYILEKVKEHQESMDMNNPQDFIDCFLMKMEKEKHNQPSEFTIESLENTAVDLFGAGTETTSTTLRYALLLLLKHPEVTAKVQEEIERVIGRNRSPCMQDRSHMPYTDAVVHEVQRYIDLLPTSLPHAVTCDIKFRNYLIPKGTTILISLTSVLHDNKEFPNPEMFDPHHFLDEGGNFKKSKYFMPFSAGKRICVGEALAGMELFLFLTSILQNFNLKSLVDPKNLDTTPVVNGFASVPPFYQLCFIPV
# HEK293 [7] = assay: cells; conditions: Homo sapiens
# [8] = molecular target: T2, Corticotropin-releasing factor receptor 2/Corticotropin-releasing factor-binding protein (Homo sapiens, UniProt P24387+Q13324); assay: activators of CRF receptor 2 with binding protein – uHTS hits, confirmation (AID 602473); format: functional; conditions: read-out: EC50_Mean
# T2 sequence (Q13324 whole entry): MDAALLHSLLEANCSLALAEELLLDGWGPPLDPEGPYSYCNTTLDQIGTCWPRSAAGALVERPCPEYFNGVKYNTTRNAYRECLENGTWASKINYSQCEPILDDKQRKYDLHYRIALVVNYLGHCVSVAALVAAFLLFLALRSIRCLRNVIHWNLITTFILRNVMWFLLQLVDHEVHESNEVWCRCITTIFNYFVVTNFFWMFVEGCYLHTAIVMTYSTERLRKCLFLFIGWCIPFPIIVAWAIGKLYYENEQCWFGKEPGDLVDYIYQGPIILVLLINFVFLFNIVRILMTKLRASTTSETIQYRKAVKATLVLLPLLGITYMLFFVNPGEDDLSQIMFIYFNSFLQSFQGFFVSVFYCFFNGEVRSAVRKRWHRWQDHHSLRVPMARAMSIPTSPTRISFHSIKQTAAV
# T2 sequence (P24387 whole entry): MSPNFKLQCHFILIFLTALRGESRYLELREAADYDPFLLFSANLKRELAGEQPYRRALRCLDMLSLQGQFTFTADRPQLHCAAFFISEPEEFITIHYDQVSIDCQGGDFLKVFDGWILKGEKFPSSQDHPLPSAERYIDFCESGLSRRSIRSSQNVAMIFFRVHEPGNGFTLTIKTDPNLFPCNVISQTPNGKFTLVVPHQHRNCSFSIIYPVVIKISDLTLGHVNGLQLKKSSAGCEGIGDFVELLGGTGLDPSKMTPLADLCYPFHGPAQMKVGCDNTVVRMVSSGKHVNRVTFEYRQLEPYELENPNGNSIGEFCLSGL
# HEK293 [9] = assay: cells; conditions: Homo sapiens; remark: listed apart in the source
# [10] = molecular target: T2, Corticotropin-releasing factor receptor 2/Corticotropin-releasing factor-binding protein; assay: Dose Response confirmation of uHTS hits for small molecule antagonists of the CRF-binding protein and CRF-R2 receptor complex.; format: functional; conditions: read-out: IC50_Mean
# [11] = molecular target: T3, Replicative DNA helicase DnaB (Mycobacterium tuberculosis, UniProt P9WMR3); assay: DnaB intein splicing inhibitors, dose response, biochemical, cell-free fluorescence (AID 449749); format: functional
# T3 sequence (P9WMR3 whole entry): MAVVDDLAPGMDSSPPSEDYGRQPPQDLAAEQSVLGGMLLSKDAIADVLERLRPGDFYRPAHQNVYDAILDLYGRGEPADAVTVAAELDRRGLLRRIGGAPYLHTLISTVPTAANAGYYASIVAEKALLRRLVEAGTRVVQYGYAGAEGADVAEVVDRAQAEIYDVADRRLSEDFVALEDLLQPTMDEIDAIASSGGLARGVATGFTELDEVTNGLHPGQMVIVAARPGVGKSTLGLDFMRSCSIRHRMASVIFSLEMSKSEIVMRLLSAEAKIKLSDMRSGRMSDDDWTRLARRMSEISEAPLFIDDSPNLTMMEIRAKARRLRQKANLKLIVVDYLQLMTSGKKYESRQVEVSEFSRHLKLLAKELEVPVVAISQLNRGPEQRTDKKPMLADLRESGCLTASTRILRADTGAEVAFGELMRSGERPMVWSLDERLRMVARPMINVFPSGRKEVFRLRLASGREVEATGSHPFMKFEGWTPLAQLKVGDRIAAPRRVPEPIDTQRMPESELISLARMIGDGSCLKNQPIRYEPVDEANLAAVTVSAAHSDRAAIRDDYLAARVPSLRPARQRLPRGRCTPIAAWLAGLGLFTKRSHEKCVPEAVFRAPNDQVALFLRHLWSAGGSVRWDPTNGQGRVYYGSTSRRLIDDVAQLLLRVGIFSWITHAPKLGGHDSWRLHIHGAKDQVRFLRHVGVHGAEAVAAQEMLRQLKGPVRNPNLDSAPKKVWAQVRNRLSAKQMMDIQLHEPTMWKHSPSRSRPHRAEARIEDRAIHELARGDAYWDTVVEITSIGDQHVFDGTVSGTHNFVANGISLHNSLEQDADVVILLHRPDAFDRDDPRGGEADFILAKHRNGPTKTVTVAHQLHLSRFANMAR
# [12] = microbe, parasite or virus in culture; format: functional; conditions: Mycobacterium tuberculosis
# Protein RecA = molecular target: T4, Protein RecA (Mycobacterium tuberculosis, UniProt P9WHJ3); assay: Fluorescence Cell-Free Homogeneous Dose Retest to Identify Inhibitors of RecA-Intein Splicing Activity. [Related pubchem assays (depositor defined):AID2097, AID2223, AID489010, AID492950]; format: functional
# T4 sequence (P9WHJ3 whole entry): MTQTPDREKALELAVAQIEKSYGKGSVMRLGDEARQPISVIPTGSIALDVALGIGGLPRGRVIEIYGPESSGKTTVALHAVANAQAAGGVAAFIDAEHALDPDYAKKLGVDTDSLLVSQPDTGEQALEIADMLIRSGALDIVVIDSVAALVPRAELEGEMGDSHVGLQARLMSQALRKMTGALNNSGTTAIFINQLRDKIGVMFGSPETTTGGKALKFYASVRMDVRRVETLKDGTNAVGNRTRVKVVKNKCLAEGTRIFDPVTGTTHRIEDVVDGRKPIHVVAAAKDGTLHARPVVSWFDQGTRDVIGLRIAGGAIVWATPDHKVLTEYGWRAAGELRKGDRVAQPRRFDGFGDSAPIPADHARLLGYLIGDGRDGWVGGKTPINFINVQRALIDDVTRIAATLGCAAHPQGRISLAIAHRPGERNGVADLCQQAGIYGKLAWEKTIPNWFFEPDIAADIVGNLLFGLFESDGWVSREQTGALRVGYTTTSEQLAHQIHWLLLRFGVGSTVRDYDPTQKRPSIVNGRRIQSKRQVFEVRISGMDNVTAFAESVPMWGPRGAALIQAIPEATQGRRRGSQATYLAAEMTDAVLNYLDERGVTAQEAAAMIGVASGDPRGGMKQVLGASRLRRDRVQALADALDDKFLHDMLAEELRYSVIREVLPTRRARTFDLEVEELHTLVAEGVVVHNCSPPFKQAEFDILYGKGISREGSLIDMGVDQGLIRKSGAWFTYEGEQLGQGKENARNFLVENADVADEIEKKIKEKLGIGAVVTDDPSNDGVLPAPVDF
# [13] = molecular target: T5, Apoptotic protease-activating factor 1 (Homo sapiens, UniProt O14727); format: functional
# T5 sequence (O14727 whole entry): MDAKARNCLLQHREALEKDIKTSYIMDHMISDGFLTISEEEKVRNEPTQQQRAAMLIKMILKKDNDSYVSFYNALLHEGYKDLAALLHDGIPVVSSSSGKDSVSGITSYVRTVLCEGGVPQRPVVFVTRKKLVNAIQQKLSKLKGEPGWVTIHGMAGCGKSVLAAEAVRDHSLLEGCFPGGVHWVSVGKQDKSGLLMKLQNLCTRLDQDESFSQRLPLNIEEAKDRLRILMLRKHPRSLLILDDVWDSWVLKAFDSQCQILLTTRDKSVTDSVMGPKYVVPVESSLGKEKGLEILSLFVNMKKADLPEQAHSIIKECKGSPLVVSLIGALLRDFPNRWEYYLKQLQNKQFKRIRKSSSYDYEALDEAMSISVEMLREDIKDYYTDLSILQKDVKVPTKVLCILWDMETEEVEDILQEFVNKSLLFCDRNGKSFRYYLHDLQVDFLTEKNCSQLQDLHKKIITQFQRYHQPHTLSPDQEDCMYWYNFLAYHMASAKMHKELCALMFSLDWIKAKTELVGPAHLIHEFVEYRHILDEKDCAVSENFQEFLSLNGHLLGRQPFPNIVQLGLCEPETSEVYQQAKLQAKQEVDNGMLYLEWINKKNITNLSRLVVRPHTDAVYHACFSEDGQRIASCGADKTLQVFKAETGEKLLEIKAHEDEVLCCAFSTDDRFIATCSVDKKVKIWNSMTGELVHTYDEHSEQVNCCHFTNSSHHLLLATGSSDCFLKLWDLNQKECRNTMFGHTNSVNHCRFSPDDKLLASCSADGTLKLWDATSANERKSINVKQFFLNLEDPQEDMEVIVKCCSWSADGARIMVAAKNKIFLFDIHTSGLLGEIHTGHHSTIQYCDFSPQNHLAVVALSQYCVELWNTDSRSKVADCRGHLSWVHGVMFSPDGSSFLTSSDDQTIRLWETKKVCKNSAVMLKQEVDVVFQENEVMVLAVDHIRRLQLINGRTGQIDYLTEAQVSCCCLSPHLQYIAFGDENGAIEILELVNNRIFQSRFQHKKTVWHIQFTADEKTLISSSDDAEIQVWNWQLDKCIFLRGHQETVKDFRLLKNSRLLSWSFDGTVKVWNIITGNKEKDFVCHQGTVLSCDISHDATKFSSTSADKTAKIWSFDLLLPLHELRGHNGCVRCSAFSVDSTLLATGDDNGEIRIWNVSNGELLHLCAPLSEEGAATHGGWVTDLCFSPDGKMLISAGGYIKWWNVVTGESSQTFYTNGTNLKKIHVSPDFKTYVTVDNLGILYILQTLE
# [14] = molecular target: T6, Ubiquitin-conjugating enzyme E2 N (Homo sapiens, UniProt P61088); format: functional;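 note: Dose-response confirmation in a TR-FRET assay detecting UBC13-driven polyubiquitin chain formation, inhibition measured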
# T6 sequence (P61088 whole entry): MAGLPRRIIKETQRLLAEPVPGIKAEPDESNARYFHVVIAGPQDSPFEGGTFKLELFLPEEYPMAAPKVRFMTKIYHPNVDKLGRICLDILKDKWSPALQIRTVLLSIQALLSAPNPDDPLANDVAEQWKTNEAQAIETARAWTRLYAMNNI
# [15] = human group III sPLA2 inhibitors, dose response, biochemical, QFRET, IC50 (AID 743457);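 note: green fluorescence rise as the enzyme cleaves BODIPY PC-A2 in liposomes; potency for inhibition of the enzyme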
# [16] = molecular target: Heat shock protein HSP 90-alpha (Homo sapiens, UniProt P07900); format: functional, organism-based
structure (smiles),measurement,setting,value
O=C(Nc1nc(-c2cccc(Br)c2)cs1)Oc1ccccc1,EC50,[1],> 91.2 µM (inactive)
same,EC50,[2],> 91.2 µM (inactive)
N#C/C(=C/c1cccs1)c1nc2ccccc2[nH]1,EC50,[1],> 91.1 µM (inactive)
same,EC50,[2],> 91.1 µM (inactive)
O=C(Nc1nnc(S(=O)(=O)N2CCCCCC2)s1)c1cccc(Br)c1,IC50,[3],78.9 µM (inactive)
same,EC50,[4],> 195 µM (not active)
O=C(Oc1ccc2ccccc2c1Br)N1CCCCCC1,CC50,Vero [5],> 25 µM (active)
same,IC50,Vero [6],4.26 µM (active)
same,AC50,Cytochrome P450 2C9,25.1 µM (inconclusive)
O=C1CCCCC1Nc1ccc2ccccc2c1 (stereo unspecified),IC50,Vero [6],> 12.5 µM (active)
Nc1c(C(=O)Nc2ccc(F)cc2)sc(=S)n1-c1ccccc1F,IC50,[3],> 80 µM (inactive)
COC(=O)CN1C(c2ccc(Cl)cc2)=Nc2ccc(Cl)cc2C1c1ccccc1 (stereo unspecified),EC50,HEK293 [7],> 59.6 µM (inactive)
same,EC50,[8],> 53 µM (inactive)
same,EC50,HEK293 [9],> 59.6 µM (inactive)
same,IC50,[10],> 47.1 µM (inactive)
same,AC50,[11],4.24 µM (active)
same,CC50,[12],> 40 µM (active)
same,EC50,Protein RecA,55.9 µM (inconclusive)
O=C(CCCc1ccccc1)NCc1ccccc1,EC50,[1],> 91.3 µM (inactive)
same,EC50,[2],> 91.3 µM (inactive)
COc1ccc(C(CNC(=O)COc2c(C)cc(C)cc2C)N2CCOCC2)cc1 (stereo unspecified),IC50,[13],> 100 µM (inactive)
same,IC50,[14],> 20 µM (inactive)
Cc1oc2c(c1C(=O)O)C(=O)c1ccccc1C2=O,IC50,[13],11.4 µM (active)
Cc1ccc2nc(NNC(=O)c3ccc4c(c3)OCCO4)sc2c1,IC50,[15],> 122 µM (inactive)
CC(C)N1CCN(c2ccc(OC[C@H]3CO[C@](Cn4cncn4)(c4ccc(Cl)cc4Cl)O3)cc2)CC1 [TERCONAZOLE],CC50,Vero [5],22.1 µM (active)
same,AC50,[16],1.41 µM (active)
